Counter-ions that a name gives are not always drawn.
What was measured:
[1] = system: CCl4 -induced hepatopath rats; test: Hepatopathy improving effects for CCl4-induced hepatopath rats (inhibition to the increase of transaminase in serum); type: in vivo; conditions: SD male rats, 100 mg/kg oral, 30 min before CCl4 (diluted fourfold with olive oil, peritoneally, 4 mg/kg), blood after 24 hours; for Serum GPT: Control 1 (no CCl4) 20, Control 2 (CCl4 alone) 1071; for Serum GOT: Control 1 (no CCl4) 89, Control 2 (CCl4 alone) 7719
Method: The hepatopathy improving effects of the compounds (I') of this invention for CCl4 -induced hepatopath rats were investigated by using, as an index, the inhibition to the increase of transaminase in serum. After SD male rats (7 weeks old; Japanese Charles River) had been fasted for 24 hours, test drugs were orally administered at 100 mg/kg. Thirty minutes later, a CCl4 solution (diluted fourfold with olive oil) was peritoneally administered at 4 mg/kg. The rats were fasted further for 24 hours and then anesthetized with 1 ml/kg of sodium pentobarbital. After a blood sample was collected from the descending abdominal aorta of each rat, the liver was enucleated and its wet weight was measured. Further, the GOT and GPT of a serum, which had been obtained from the blood sample so collected, were measured by an automatic chemical analyzer ("TBA-380", trade name; manufactured by Toshiba Corp.). Thick serums were measured after dilution in distilled water.
Note: Control 1 is a group not administered with CCl4 while Control
is a group administered with CCl4 alone.

hepatopath = conditions: previously found by the present assignee; cited from earlier work

Structure (SMILES)	Serum GPT [1] [U/1]	Serum GOT [1] [U/1]	improvement of GPT and GOT value of a hepatopath (hepatopath)
CC(C)OC(=O)C(=C1SC=CS1)c1ccc2c(c1)OCO2 [Example 3, isopropyl 2-(1,3-dithiol-2-ylidene)-2-[3,4-(methylenedioxy)phenyl]acetate]	557	2573	
COc1cc2c(c(OC)c1OC)-c1c(cc3c(c1OC)OCO3)CC(C)C(C)(O)C2 (stereo not shown) [gomisin A]			can promptly improve the GPT and GOT value of a hepatopath
c1csc(=Nc2ccc3c(c2)OCO3)s1 [Example 1, N,N-(1,3-dithiol-2-ylidene)-1,3-benzodioxol-5-amine]	74	432	
CSCC(N)C(=O)Nc1ccc2c(c1)OCO2 (stereo not shown) [Example 5, [(3,4-methylenedioxy)aniline]-S-methylcysteinamide hydrochloride]	57	391	
CC(C)OC(=O)C(C(=O)c1ccc2c(c1)OCO2)=C1SC=CS1 [Example 2, isopropyl 2-(1,3-dithiol-2-ylidene)-3-[3,4-(methylenedioxy)phenyl]-3-oxopropionate]	100	563	
CSC(=S)Nc1ccc2c(c1)OCO2 [Synthesis Example 1, methyl N-(3,4-methylenedioxyphenyl)dithiocarbamate]	230	1027	
COC(=O)CNc1ccc2c(c1)OCO2 [Synthesis Example 2, methyl 2-[N-(3,4-methylenedioxyphenyl)amino]acetate]	310	1400	
